Results: publication PMC5342726, “Identification of small molecule inhibitors of ERCC1-XPF that inhibit DNA repair and potentiate cisplatin efficacy in cancer cells” (Oncotarget, 2016)
pIC50: −log10 of the molar value.

Assays:
H1299 ERCC1 WT cells = assay: Colony survival assay in H1299 ERCC1 WT cells; format: cell-based
Description: (§1) We used H460, NSCLC cells, to first assess the impact on colony survival by knocking down ERCC1-XPF in these cells. […] Next, to assess if colony survival is affected we titrated cisplatin in these cells using a fixed concentration of Hit 1(50 μM) or Hit 2 (25 and 50 μM). […] Next, we assessed cisplatin potentiation by treating cells at a fixed cisplatin concentration (cisplatin IC50 in H460 cells) with Hit 1 or 2 titration (Figure 4C, filled symbols). H460 cells were treated with compound for a total of 4 hours while cisplatin was added to the media after 2 hours of compound pre-treatment. […] We also titrated Hit 1 or Hit 2 alone in these cells and treated for 4 h. […] We also assessed the effects of Hit 2 in another NSCLC cell line (H1299), which was either ERCC1 wildtype (WT) or knockout (KO) (Figure 4E).
(§2) Colony survival assay in a total reaction volume of 2.4 mL in a six-well plate Cells were split and seeded at a density of 300-400 format. […]
(§3) with ≥50 cells were counted using a light microscope. […]
(§4) survival was expressed as the ratio of average number of into a linearized pCR4-TOPO vector and transformed colonies in drug treated cells versus control cells x 100. into OneShot TOP10 E. coli using the TOPO-TA Cloning The experiment was done in triplicate for each drug Kit for Sequencing (Thermofisher). […]

H1299 ERCC1 KO cells = assay: Colony survival assay in H1299 ERCC1 KO cells; format: cell-based
Description: as §1, §2, §3, §4

APE1 endonuclease = system: APE1 endonuclease; set-up: method as in PMID 18042731; conditions: cited from earlier work

Cc1ccc(S(=O)(=O)Oc2cc(S(=O)(=O)O)cc3cc(S(=O)(=O)O)cc(N)c23)cc1 [NSC16168]
potentiation of cisplatin response, ERCC1 WT (H1299 ERCC1 WT cells): potentiated the cisplatin response
potentiation of cisplatin response, ERCC1 KO (H1299 ERCC1 KO cells): no additional cisplatin potentiation
pIC50 (APE1 endonuclease): ~5.15
